Measured values reported in patent publication US10184137B2, “Method of producing isoprene monomer” (AJINOMOTO CO., INC., priority 2014, dated 2019).
Values joined by “and” are separate entries in the source; they are usually repeats but may differ in a detail not shown here. Equal values may be shown once. Where a name gives a salt, the structure may show the parent alone. Values belong to the molecule of their own block, whether it stands above or below them.

Legend:
[1] = molecular target: Methanocella paludicola mevalonate kinase (mpd), wild type, SEQ ID NO:1, N-terminal His-tag (Methanocella paludicola, UniProt D1YZ39); experiment: Inhibition of mpd-derived mevalonate kinase by DMAPP, GPP, FPP or DPM; type: biochemical
Procedure: (§1) Km value was calculated by Lineweaver-Burk plot.
(§2) Since GPP and FPP solutions contain methanol, methanol which was needed to keep the same methanol level at the addition to the reaction system was added to the reaction solution, which was designated as control.
(§3) Effect of 1 mM diphosphomevalonate (DPM) on each enzyme was also studied.

[2] = molecular target: Corynebacterium variabile mevalonate kinase (cva), wild type, SEQ ID NO:3, N-terminal His-tag (Corynebacterium variabile, UniProt A0A0X2NLH5); experiment: Inhibition of cva-derived mevalonate kinase by DMAPP, GPP, FPP or DPM; type: biochemical
Procedure: as §1, §2, §3

[3] = molecular target: Nitrosopumilus maritimus mevalonate kinase (nmr), wild type, SEQ ID NO:9, N-terminal His-tag (Nitrosopumilus maritimus, UniProt A9A427); experiment: Inhibition of nmr-derived mevalonate kinase by DMAPP, GPP, FPP or DPM; type: biochemical
Procedure: as §1, §2, §3

[4] = molecular target: T1, Methanosarcina mazei mevalonate kinase (mma), wild type, SEQ ID NO:12, N-terminal His-tag (Methanosarcina mazei, UniProt Q8PW39); experiment: Inhibition of mma-derived mevalonate kinase by DMAPP, GPP, FPP or DPM; type: biochemical
T1 sequence (Q8PW39 1-301): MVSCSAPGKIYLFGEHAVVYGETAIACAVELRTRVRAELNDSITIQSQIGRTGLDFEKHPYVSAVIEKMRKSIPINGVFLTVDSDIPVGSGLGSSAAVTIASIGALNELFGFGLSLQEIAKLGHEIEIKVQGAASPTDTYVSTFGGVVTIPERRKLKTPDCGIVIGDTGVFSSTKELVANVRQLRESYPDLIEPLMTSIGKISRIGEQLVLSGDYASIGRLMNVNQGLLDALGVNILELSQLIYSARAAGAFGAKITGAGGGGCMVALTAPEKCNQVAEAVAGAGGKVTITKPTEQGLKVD
Procedure: as §1, §2, §3

[5] = molecular target: T2, Methanosaeta concilii mevalonate kinase (mcl), wild type, SEQ ID NO:6, N-terminal His-tag (Methanothrix soehngenii, UniProt F4BZB3); experiment: Inhibition of mcl-derived mevalonate kinase by DMAPP, GPP, FPP or DPM; type: biochemical
T2 sequence (F4BZB3 1-317): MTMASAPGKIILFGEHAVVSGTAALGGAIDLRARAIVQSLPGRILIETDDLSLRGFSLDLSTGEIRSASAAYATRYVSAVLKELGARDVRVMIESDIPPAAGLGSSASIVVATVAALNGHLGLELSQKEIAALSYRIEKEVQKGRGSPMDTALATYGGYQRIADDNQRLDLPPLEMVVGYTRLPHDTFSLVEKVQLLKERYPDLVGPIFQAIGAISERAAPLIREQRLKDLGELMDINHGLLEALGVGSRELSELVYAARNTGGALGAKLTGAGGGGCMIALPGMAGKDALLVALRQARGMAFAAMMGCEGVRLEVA
Procedure: as §1, §2, §3

[6] = molecular target: T2, Methanosaeta concilii mevalonate kinase (mcl), wild type, SEQ ID NO:6, N-terminal His-tag; experiment: biochemical
[7] = substrate: Nc1ncnc2c1ncn2[C@@H]1O[C@H](COP(=O)(O)OP(=O)(O)OP(=O)(O)O)[C@@H](O)[C@H]1O; experiment: purified protein, by the assay type; conditions: other: mpd, 5 mM potassium mevalonate, pH 7.6, 30° C., Lineweaver-Burk plot
Procedure: Each obtained plasmid was used for transformation of E. coli BL21(DE3). […] When OD600 reached approximately 0.5, 0.1 mM IPTG (for cva, mma, nmr, and sce) or 1 mM (for mcl and mpd) of IPTG was added, and then the mixture was kept at 20° C. overnight to induce the target protein. […] After centrifugation (28,000×g, 30 min), the supernatant was adsorbed onto His-Trap HP (GE Healthcare) to elute the target protein by linear concentration gradient of Imidazol (final concentration 0.5 M). Obtained protein was dialyzed by using an external solution composed of 20 mM Tris-HCl (pH 8.0) containing 1 mM DTT and 50 mM NaCl. Dialyzed protein was designated as purified enzyme. Protein quantity was measured with Bio-RAD protein assay kit and BSA standard condition.
Decrease in absorbance at 340 nm at 30° C. was measured to determine the enzyme activity. JASCO Corporation's spectrophotometer (V-650) was used in this study. […] Km value was calculated by Lineweaver-Burk plot.

mevalonate kinase [8] = experiment: Measurement of activity and Km value of purified mevalonate kinase (PK/LDH coupled, 340 nm); type: biochemical; conditions: 10 μl enzyme in 1 ml, replicate values
Procedure: Each obtained plasmid was used for transformation of E. coli BL21(DE3). […] When OD600 reached approximately 0.5, 0.1 mM IPTG (for cva, mma, nmr, and sce) or 1 mM (for mcl and mpd) of IPTG was added, and then the mixture was kept at 20° C. overnight to induce the target protein. Harvested cells were suspended in buffer solution A (50 mM sodium phosphate, 0.3 M NaCl and 20 mM Imidazol), and then the cells were disrupted with an ultrasonic disruptor (TOMY: UD-201). […] After centrifugation (28,000×g, 30 min), the supernatant was adsorbed onto His-Trap HP (GE Healthcare) to elute the target protein by linear concentration gradient of Imidazol (final concentration 0.5 M). Obtained protein was dialyzed by using an external solution composed of 20 mM Tris-HCl (pH 8.0) containing 1 mM DTT and 50 mM NaCl. Dialyzed protein was designated as purified enzyme. Protein quantity was measured with Bio-RAD protein assay kit and BSA standard condition.
(§4) Decrease in absorbance at 340 nm at 30° C. was measured to determine the enzyme activity. JASCO Corporation's spectrophotometer (V-650) was used in this study. Millimolar extinction coefficient of NADH used in this study was 6.22 mM^−1 cm^−1. […] Km value was calculated by Lineweaver-Burk plot.
Measured activity of each enzyme (JABS/min) was presented on Table 9 for the calculation of apparent Km value (Km app.) of each enzyme. Table 10 presents Km app., Vmax, molecular weight of the enzyme protein, protein concentration in the enzyme solution and calculated kcat.
Activity was indicated by dABS/min when 10 μl of each enzyme was added to 1 ml of reaction solution.

mevalonate kinase [9] = experiment: Inhibition of each mevalonate kinase by DMAPP, GPP, FPP or DPM; type: biochemical
Procedure: as §2
Respective effect of the added 5 mM DMAPP, 0.1 mM GPP, and 0.1 mM FPP on the activity of each enzyme was measured. […] Contrarily, mcl-derived enzyme was activated by 5 mM DMAPP and its activity increased by 20% from that of the control.
Activity when 10 μl of each enzyme was added to 1 ml of the reaction system was represented by dABS/min
as §3

mevalonate kinase [10] = experiment: Examination of product inhibition on each mevalonate kinase (absorbance at 386 nm, PMK addition); type: biochemical; conditions: in words
Procedure: When decrease in absorbance stopped, purified PMK was added to measure further decrease in absorbance at 386 nm.
FIG. 18 presents the SDS-PAGE profile of the purified PMK. […] Then, absorbance decreased further and finally absorbance at 386 nm decreased to 0.3 in all reaction systems. Therefore, it is inferred that mevalonate is converted into diphosphomevalonate via phosphomevalonate by adding PMK to each MVK.

mevalonate kinase [11] = experiment: Expression analysis and activity confirmation of His-tagged mevalonate kinases from pET-21a(+) and pET-28b(+); type: biochemical; conditions: His-spinTrap eluate after dialysis, 10 μl enzyme solution
Procedure: Each obtained plasmid was used for transformation of E. coli BL21(DE3). […] When OD600 reached approximately 0.5, IPTG was added to the solution to final concentration of 1 mM. It was then cultured overnight at 20° C. Harvested cells were suspended in the buffer solution consisting of 50 mM sodium phosphate, 0.3 M NaCl and 20 mM Imidazol. Then the cells were disrupted with an ultrasonic disruptor (TOMY: UD-201, output level=3.5). After centrifugation (20,000×g, 20 min), disrupted cells were adsorbed to His-spinTrap (GE Healthcare). After washing with the same buffer solution, protein was eluted with the buffer solution consisting of 50 mM sodium phosphate, 0.3 M NaCl and 0.5 M imidazole (pH7.5). Eluate was dialyzed overnight at 4° C. with the external solution composed of 20 mM Tris-HCl (pH7.5) and 50 mM NaCl. Then, enzyme activity of each eluate in the internal dialysis solution was measured.
Activity of the internal dialysate (about 0.2 ml each) was measured with the 10 μl of enzyme solution (Table 8). Enzyme expression level was compared on activity basis between pET-21a(+) and pET-28b(+). […] It is inferred that expression level is higher in pET-28b(+). Therefore, purified enzyme expressed in pET-28b(+) was used in the further examinations.
Values were presented by decrease in absorbance per unit time per 10 μl in the enzyme reaction measurement system (dABS/min/10 μl).
as §4

Chain of Corynebacterium variabile mevalonate kinase (cva), wild type, SEQ ID NO:3, N-terminal His-tag (A0A0X2NLH5 entry or part of it): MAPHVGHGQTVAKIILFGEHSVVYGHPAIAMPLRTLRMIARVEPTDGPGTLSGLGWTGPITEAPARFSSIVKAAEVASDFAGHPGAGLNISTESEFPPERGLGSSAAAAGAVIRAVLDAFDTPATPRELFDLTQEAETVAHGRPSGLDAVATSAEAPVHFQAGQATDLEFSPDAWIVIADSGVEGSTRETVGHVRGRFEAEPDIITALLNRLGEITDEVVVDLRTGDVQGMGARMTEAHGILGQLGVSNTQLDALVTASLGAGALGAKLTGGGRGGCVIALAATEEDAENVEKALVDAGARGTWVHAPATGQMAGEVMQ

- Enzyme activity with 0.1 mM GPP ([1]; 0.1 mM GPP, control 0.15734): 0.1589 dABS/min
- Enzyme activity with 0.1 mM GPP ([2]; 0.1 mM GPP, control 0.08338): 0.07532 dABS/min
- Enzyme activity with 0.1 mM GPP ([3]; 0.1 mM GPP, control 0.2438): 0.2427 dABS/min
- Enzyme activity with 0.1 mM GPP ([4]; 0.1 mM GPP, control 0.21): 0.2009 dABS/min
- Enzyme activity with 0.1 mM GPP ([5]; mcl, 0.1 mM GPP, control 0.1482): 0.1538 dABS/min
Molecule: CC(C)=CCC/C(C)=C/COP(=O)(O)OP(=O)(O)O [GPP, geranyl phyrophosphate ammonium salt]

Molecule: CC(C)=CCOP(=O)(O)OP(=O)(O)O.N.N.N [DMAPP, Dimethylallyl diphosphate ammonium salt]
- Enzyme activity with 5 mM DMAPP ([1]; 5 mM DMAPP, control 0.15734): 0.1528 dABS/min
- Enzyme activity with 5 mM DMAPP ([2]; 5 mM DMAPP, control 0.08338): 0.0786 dABS/min
- Enzyme activity with 5 mM DMAPP ([3]; 5 mM DMAPP, control 0.2438): 0.231 dABS/min
- Enzyme activity with 5 mM DMAPP ([4]; 5 mM DMAPP, control 0.21): 0.1904 dABS/min
- Enzyme activity with 33.6 μM DMAPP ([6]; mcl, 33.6 μM DMAPP, control (H2O) 0.15403): 0.1527 dABS/min
- Enzyme activity with 168 μM DMAPP ([6]; mcl, 168 μM DMAPP, control (H2O) 0.15403): 0.1552 dABS/min
- activation at 5000 µM ([6]; read-out: Increase of relative activity): 20%
- Enzyme activity with 5 mM DMAPP ([5]; mcl, 5 mM DMAPP, control 0.1482): 0.1806 dABS/min
- activation at 5000 µM ([5]; read-out: Increase of activity from that of the control): 20%

- Inhibition by FPP ([1]; 0.1 mM FPP): no other enzymes were inhibited strongly
- Enzyme activity with 0.1 mM FPP ([1]; 0.1 mM FPP, control 0.15734): 0.1594 dABS/min
- Inhibition by FPP ([2]; 0.1 mM FPP): inhibited
- Enzyme activity with 0.1 mM FPP ([2]; 0.1 mM FPP, control 0.08338): 0.04775 dABS/min
- Inhibition by FPP ([3]; 0.1 mM FPP): no other enzymes were inhibited strongly
- Enzyme activity with 0.1 mM FPP ([3]; 0.1 mM FPP, control 0.2438): 0.224 dABS/min
- Inhibition by FPP ([4]; 0.1 mM FPP): no other enzymes were inhibited strongly
- Enzyme activity with 0.1 mM FPP ([4]; 0.1 mM FPP, control 0.21): 0.2059 dABS/min
- Inhibition by FPP ([5]; mcl, 0.1 mM FPP): no other enzymes were inhibited strongly
- Enzyme activity with 0.1 mM FPP ([5]; mcl, 0.1 mM FPP, control 0.1482): 0.1562 dABS/min
Molecule: CC(C)=CCC/C(C)=C/CC/C(C)=C/COP(=O)(O)OP(=O)(O)O [FPP, farnesyl pyrophosphate ammonium salt]

Molecule: C=C(C)CCOP(=O)(O)OP(=O)(O)O.N.N.N [IPP, Isopentenyl pyrophosphate tri-ammonium salt]
- Enzyme activity with 33.6 μM IPP ([6]; mcl, 33.6 μM IPP, control (MeOH) 0.15939): 0.158 dABS/min
- Enzyme activity with 168 μM IPP ([6]; mcl, 168 μM IPP, control (MeOH) 0.15939): 0.1606 dABS/min

B1: Methanocella paludicola mevalonate kinase (mpd), wild type, SEQ ID NO:1, N-terminal His-tag (Methanocella paludicola SANAE) (protein)
chain: MTMCSAPGKVFLFGEHAVVYGKRAIACAIDLRTTVEVSRKSRGVHIHSAFKDEPDKNLYIKTAVKRMQKCADIRNVNIAVSSRIPVASGLGSSAAVTVATIGALNEEFSAGLSKKDIAYMAYQTELEVQGAASPTDTFVSTMGGTVVVPDMRTLPPITCGIVVGHTGISKSTSRMVSRVRTLKEKYPDVIDGIMDSIGDISARGEDLIKQNDYRSIGELMNVNQGLLDALGITIPELSLQIYAARQHGAYGAKITGAGGGGCMVAICDDKNCKEIATAIGRSYGDSFISKPTAEGIFIQ
- Km [7]: 119 ± 2.1 µM

- DPM-induced inhibition (mevalonate kinase [10]): not observed
B2: nmr: mevalonate kinase derived from Nitrosopumilus maritimus (SEQ ID NO:9), His-tagged purified enzyme (protein, listed as Nitrosopumilus maritimus)
chain: MKSKASAPGKVILFGEHFVVYGVKAILCAINKRIAVTAEKIDERKISIKSNIGHLELEPNKPISEINSPLKPFYYLANKIIQDKNFGIKIDVESEIPLGVGLGSSSACCVAGAAAISNLFENNSKEEILKLAIEAEKTIFQNTSGADCTVCTFGGLMEYDKENGFSKIESEPNFHLVIANSNVEHSTESVVAGVRKFKKNNEAEFSKLCKDESHLIENVLELLKENNIRELGERVIKNQEYLERIGISNAKLREMIQTGQNSSFGAKITGAGGGGCIFALTDESNLENTIKEFKEKNHECFSVKIDFKGLDTF
modifications: His-tag
- dABS/min at ATP 0.04 mM (mevalonate kinase [8]; ATP 0.04 mM, potassium mevalonate 5 mM): 0.007781 dABS/min and 0.00767 dABS/min and 0.007932 dABS/min
- dABS/min at ATP 0.2 mM (mevalonate kinase [8]; ATP 0.2 mM, potassium mevalonate 5 mM): 0.03637 dABS/min and 0.03629 dABS/min and 0.03625 dABS/min
- dABS/min at ATP 1 mM (mevalonate kinase [8]; ATP 1 mM, potassium mevalonate 5 mM): 0.1089 dABS/min and 0.1084 dABS/min and 0.1085 dABS/min
- dABS/min at mev 0.04 mM (mevalonate kinase [8]; potassium mevalonate 0.04 mM, ATP 5 mM): 0.01691 dABS/min and 0.01687 dABS/min and 0.0168 dABS/min
- dABS/min at mev 0.2 mM (mevalonate kinase [8]; potassium mevalonate 0.2 mM, ATP 5 mM): 0.06788 dABS/min and 0.06784 dABS/min and 0.06777 dABS/min
- dABS/min at mev 1 mM (mevalonate kinase [8]; potassium mevalonate 1 mM, ATP 5 mM): 0.1521 dABS/min and 0.1522 dABS/min and 0.153 dABS/min
- enzyme activity, Control (mevalonate kinase [9]; Table 11 control without terpenyl diphosphate (methanol added)): 0.2438 dABS/min
- enzyme activity, Control (mevalonate kinase [9]; Table 12 control without DPM): 0.2064 dABS/min
- course of decrease in absorbance at 386 nm until PMK addition (mevalonate kinase [10]; 1 mM mevalonate as substrate): decrease in the rate of reaction associated with the progression of reaction
- enzyme activity, pET21 system (C terminal Tag) (mevalonate kinase [11]): 0.137 dABS/min/10 μl
- enzyme activity, pET28 system (N terminal Tag) (mevalonate kinase [11]): 0.247 dABS/min/10 μl
